Calls of active or inactive are those of the source. The calls are words filed in the database; no cut-off is given here.
Legend:
[1] = biological target: Dual specificity tyrosine-phosphorylation-regulated kinase 1A (Mus musculus) (UniProt Q61214); experiment: Inhibition of mouse Dyrk1A autophosphorylation in HEk293 cells at 10 uM; assay type: cell-based
[2] = biological target: Dual specificity tyrosine-phosphorylation-regulated kinase 1A (Mus musculus, UniProt Q61214); experiment: Inhibition of mouse Dyrk1A autophosphorylation in HEk293 cells; assay type: cell-based
[3] = biological target: Dual specificity protein kinase CLK3 (Homo sapiens) (UniProt P49761); experiment: Activity against CLK3 at 10 uM in the presence of 100 uM ATP relative to control
Chain of Dual specificity protein kinase CLK3 (Homo sapiens) (P49761 whole entry, looked up): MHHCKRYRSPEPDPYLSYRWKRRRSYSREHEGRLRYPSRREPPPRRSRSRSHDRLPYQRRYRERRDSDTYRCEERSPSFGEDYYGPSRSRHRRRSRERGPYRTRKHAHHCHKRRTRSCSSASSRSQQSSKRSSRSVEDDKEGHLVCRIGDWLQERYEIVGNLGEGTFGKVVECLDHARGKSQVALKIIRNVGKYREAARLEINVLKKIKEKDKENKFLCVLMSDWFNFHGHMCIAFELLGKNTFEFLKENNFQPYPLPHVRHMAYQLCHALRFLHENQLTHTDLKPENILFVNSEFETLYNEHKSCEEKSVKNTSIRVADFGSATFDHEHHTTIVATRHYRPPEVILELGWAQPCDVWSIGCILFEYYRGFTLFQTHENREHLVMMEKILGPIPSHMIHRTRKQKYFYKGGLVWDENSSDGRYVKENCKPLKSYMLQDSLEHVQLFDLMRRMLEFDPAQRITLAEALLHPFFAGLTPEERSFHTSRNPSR

[4] = biological target: Glycogen synthase kinase-3 beta (Homo sapiens) (UniProt P49841); experiment: Activity against GSK3-beta at 10 uM in the presence of 100 uM ATP relative to control
Chain of Glycogen synthase kinase-3 beta (Homo sapiens) (P49841 whole entry, looked up): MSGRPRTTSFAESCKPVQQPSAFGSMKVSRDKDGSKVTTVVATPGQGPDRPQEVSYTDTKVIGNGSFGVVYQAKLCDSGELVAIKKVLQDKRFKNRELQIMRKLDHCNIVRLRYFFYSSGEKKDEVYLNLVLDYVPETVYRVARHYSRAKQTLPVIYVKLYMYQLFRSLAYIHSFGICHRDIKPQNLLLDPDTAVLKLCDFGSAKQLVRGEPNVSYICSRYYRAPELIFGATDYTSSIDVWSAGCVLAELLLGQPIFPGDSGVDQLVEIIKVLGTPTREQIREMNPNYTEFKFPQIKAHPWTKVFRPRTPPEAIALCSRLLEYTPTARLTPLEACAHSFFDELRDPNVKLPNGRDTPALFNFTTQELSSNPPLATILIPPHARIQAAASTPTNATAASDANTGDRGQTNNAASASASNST

[5] = biological target: Tyrosine-protein kinase ABL1 (Homo sapiens) (UniProt P00519); experiment: Activity against Abl at 10 uM in the presence of 100 uM ATP relative to control
Chain of Tyrosine-protein kinase ABL1 (Homo sapiens) (P00519 whole entry): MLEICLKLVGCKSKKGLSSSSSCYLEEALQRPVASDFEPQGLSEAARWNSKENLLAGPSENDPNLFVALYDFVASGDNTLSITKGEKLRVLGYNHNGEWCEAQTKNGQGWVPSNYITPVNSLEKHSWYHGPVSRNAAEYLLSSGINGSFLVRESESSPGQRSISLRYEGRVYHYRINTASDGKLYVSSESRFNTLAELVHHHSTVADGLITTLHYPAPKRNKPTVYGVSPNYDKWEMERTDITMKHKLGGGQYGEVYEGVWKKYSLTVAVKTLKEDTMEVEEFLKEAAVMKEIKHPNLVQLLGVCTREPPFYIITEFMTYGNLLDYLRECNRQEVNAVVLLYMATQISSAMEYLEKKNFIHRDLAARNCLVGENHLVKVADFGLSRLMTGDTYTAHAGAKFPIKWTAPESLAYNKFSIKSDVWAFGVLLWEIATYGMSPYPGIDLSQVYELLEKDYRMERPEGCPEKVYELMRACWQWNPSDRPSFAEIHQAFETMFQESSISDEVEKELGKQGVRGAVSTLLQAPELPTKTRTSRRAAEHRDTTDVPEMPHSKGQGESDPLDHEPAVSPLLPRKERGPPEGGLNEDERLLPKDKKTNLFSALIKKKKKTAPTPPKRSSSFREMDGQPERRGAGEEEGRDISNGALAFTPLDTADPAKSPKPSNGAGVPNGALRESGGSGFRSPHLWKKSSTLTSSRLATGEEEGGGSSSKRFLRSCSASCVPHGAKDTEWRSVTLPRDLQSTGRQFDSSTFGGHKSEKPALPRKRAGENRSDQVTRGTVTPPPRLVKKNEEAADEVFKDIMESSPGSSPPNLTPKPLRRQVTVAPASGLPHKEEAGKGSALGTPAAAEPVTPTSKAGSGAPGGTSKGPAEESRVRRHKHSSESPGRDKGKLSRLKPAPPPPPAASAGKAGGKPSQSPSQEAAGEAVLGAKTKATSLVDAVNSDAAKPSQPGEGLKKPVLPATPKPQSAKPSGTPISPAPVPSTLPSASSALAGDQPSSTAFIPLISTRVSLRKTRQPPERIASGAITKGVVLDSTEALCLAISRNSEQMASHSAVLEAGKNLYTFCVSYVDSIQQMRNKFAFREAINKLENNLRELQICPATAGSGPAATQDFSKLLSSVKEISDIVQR

[6] = biological target: T1, Dual specificity tyrosine-phosphorylation-regulated kinase 2 (Homo sapiens) (UniProt Q92630); experiment: Activity against DYRK2 at 10 uM in the presence of 100 uM ATP relative to control
T1 sequence (whole entry): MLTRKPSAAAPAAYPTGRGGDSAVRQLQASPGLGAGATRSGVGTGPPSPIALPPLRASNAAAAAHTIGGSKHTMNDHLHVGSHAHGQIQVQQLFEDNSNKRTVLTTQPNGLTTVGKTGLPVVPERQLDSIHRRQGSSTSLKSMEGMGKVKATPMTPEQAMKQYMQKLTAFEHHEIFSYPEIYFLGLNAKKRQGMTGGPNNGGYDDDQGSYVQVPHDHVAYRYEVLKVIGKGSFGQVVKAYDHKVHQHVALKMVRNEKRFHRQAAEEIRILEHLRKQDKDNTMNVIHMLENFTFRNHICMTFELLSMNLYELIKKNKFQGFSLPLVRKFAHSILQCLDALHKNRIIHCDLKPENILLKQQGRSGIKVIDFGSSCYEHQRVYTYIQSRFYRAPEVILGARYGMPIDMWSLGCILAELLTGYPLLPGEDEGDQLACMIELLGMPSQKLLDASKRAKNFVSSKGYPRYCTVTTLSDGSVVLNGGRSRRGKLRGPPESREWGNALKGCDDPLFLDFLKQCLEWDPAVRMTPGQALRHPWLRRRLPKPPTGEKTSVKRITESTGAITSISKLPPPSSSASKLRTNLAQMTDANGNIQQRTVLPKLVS

[7] = biological target: Casein kinase II (Homo sapiens) (UniProt P67870+P68400+P19784); experiment: Activity against CK2 at 10 uM in the presence of 100 uM ATP relative to control; assay type: protein-complex assay
[8] = biological target: CaM kinase II (Homo sapiens) (UniProt Q13557+Q13555+Q13554+Q9UQM7); experiment: Activity against CaMK2 at 10 uM in the presence of 100 uM ATP relative to control; assay type: protein assay
[9] = biological target: Protein kinase C alpha type (Homo sapiens) (UniProt P17252); experiment: Activity against PKCalpha at 10 uM in the presence of 100 uM ATP relative to control
[10] = biological target: Cyclin-dependent kinase 2/cyclin A (Homo sapiens) (UniProt P24941+P20248+P78396); experiment: Activity against CDK2/cyclinA at 10 uM in the presence of 100 uM ATP relative to control; assay type: protein-complex assay
[11] = biological target: Tyrosine-protein kinase Lck (Homo sapiens) (UniProt P06239); experiment: Activity against Lck at 10 uM in the presence of 100 uM ATP relative to control
Chain of Tyrosine-protein kinase Lck (Homo sapiens) (P06239 2-509 limits assumed): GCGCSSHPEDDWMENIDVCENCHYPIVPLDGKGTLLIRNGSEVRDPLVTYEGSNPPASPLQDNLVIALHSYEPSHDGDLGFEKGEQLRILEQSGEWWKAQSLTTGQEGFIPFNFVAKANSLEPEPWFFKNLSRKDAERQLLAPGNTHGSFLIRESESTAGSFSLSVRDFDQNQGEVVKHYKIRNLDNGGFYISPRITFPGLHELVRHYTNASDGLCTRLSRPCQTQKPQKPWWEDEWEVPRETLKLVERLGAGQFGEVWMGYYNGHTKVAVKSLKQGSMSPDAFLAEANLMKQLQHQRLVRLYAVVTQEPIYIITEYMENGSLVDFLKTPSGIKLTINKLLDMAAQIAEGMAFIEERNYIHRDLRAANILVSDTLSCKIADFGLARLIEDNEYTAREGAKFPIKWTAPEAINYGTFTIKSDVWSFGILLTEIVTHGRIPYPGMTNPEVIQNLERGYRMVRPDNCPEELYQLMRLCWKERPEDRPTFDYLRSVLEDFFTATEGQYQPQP

[12] = biological target: cAMP-dependent protein kinase (PKA) (Homo sapiens) (UniProt P22694+P17612+P22612); experiment: Activity against PKA at 10 uM in the presence of 100 uM ATP relative to control; assay type: protein assay
[13] = biological target: Cyclin-dependent kinase 5/CDK5 activator 1 (Homo sapiens) (UniProt Q00535+Q15078); experiment: Activity against CDK5/p35 at 10 uM in the presence of 100 uM ATP relative to control; assay type: protein-complex assay
Chain of Cyclin-dependent kinase 5/CDK5 activator 1 (Homo sapiens) (Q00535 whole entry): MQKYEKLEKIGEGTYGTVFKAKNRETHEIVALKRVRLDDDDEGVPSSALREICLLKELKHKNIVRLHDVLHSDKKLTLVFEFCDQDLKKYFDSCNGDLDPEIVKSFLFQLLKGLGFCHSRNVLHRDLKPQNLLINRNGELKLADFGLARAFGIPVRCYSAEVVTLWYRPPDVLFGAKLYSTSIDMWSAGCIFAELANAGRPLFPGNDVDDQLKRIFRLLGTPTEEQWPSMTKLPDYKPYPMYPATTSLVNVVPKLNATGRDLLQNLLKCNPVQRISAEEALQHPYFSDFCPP
Chain of Cyclin-dependent kinase 5/CDK5 activator 1 (Homo sapiens) (Q15078 99-307 partner limits assumed): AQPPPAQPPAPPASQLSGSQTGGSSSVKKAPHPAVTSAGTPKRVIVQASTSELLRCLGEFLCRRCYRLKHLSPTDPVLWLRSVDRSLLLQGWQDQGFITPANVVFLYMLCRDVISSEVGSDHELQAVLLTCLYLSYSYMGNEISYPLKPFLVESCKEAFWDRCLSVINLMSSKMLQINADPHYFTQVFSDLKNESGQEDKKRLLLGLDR

[14] = biological target: Mitogen-activated protein kinase 1 (Homo sapiens) (UniProt P28482); experiment: Activity against MAPK2 at 10 uM in the presence of 100 uM ATP relative to control
Chain of Mitogen-activated protein kinase 1 (Homo sapiens) (P28482 whole entry): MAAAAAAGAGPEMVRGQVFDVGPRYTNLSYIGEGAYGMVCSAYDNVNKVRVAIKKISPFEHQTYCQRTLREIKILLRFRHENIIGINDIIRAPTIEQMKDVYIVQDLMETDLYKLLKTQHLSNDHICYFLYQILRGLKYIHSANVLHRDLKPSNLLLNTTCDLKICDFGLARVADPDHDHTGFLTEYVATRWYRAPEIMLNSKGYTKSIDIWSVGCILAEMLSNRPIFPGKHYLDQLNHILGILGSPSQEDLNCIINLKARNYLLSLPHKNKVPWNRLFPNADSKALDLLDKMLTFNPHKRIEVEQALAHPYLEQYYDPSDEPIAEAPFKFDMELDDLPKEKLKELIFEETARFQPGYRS

[15] = biological target: Mitogen-activated protein kinase 10 (Homo sapiens) (UniProt P53779); experiment: Activity against JNK3 at 10 uM in the presence of 100 uM ATP relative to control
Chain of Mitogen-activated protein kinase 10 (Homo sapiens) (P53779 whole entry): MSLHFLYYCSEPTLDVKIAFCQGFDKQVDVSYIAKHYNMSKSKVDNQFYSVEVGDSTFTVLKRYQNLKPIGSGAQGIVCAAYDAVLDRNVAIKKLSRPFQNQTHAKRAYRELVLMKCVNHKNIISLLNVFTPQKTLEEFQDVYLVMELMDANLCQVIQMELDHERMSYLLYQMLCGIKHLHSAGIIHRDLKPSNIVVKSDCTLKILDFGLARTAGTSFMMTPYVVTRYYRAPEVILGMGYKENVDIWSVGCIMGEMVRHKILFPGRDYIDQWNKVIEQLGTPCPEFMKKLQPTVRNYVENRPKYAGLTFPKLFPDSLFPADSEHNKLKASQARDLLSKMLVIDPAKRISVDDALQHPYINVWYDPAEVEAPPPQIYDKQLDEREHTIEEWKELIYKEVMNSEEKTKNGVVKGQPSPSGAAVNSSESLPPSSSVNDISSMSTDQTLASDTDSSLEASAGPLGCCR

[16] = biological target: Mitogen-activated protein kinase 14 (Homo sapiens) (UniProt Q16539); experiment: Activity against SAPK2-alpha at 10 uM in the presence of 100 uM ATP relative to control
Chain of Mitogen-activated protein kinase 14 (Homo sapiens) (Q16539 whole entry): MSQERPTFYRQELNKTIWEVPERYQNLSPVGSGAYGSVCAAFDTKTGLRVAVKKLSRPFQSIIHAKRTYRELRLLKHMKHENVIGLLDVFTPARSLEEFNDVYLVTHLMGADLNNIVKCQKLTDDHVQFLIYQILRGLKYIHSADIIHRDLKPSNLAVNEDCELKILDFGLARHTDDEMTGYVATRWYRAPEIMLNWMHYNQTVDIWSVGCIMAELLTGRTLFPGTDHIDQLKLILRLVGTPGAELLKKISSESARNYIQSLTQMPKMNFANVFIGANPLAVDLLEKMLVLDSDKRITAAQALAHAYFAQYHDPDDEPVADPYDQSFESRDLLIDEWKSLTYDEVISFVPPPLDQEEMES

[17] = biological target: T2, MAP kinase-activated protein kinase 5 (Homo sapiens) (UniProt Q8IW41); experiment: Activity against PRAK at 10 uM in the presence of 100 uM ATP relative to control
T2 sequence (whole entry): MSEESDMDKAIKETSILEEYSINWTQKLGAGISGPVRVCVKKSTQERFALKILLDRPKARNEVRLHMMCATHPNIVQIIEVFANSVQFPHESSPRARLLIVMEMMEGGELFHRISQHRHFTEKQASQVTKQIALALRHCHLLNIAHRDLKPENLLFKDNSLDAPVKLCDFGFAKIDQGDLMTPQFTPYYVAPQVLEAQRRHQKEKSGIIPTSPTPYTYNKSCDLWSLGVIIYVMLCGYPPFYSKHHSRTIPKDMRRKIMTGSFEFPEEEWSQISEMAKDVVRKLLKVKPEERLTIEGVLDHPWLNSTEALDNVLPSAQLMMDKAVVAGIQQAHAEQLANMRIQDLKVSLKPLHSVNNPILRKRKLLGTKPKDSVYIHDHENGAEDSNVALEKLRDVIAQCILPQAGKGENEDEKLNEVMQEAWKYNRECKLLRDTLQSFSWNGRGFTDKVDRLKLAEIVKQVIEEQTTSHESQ

SMILES: C=CCOc1ccc(Br)cc1/C=C1\SC(Nc2ccc(Cl)c(C(=O)O)c2)=NC1=O
- inhibition [1]: inactive
- IC50 [2]: 20 µM

SMILES: CCOC(=O)c1cnc2ccc(C(=O)OC)cc2c1Nc1cccc(C(C)=O)c1
- inhibition [1]: 51%
- IC50 [2]: 50 µM

SMILES: COc1cc(/C=C2\C(=O)NN(c3ccc(Cl)c(Cl)c3)C2=O)ccc1O
- Activity [3]: 36%
- Activity [4]: 69%
- Activity [5]: 94%
- inhibition [1]: 82%
- Activity [6]: 59%
- Activity [7]: 61%
- IC50 [2]: 2.5 µM
- Activity [8]: 72%
- Activity [9]: 78%
- Activity [10]: 90%
- Activity [11]: 105%
- Activity [12]: 107%
- Activity [13]: 99%
- Activity [14]: 122%
- Activity [15]: 86%
- Activity [16]: 112%
- Activity [17]: 71%

SMILES: Cc1cccc(Nc2nc(-c3c(C)nc4ncccn34)cs2)c1
- inhibition [1]: 25%
- IC50 [2]: > 50 µM

SMILES: CN1C(=O)/C(=C2\SC(Nc3ccc(F)cc3)=NC2=O)c2ccccc21
- inhibition [1]: 12%
- IC50 [2]: 50 µM

SMILES: Brc1ccc(Nc2nc(NCc3ccco3)c3ccccc3n2)cc1
- inhibition [1]: 8%
- IC50 [2]: 5 µM

SMILES: CCOC(=O)c1ccc2ncc(C(=O)OCC)c(Nc3ccc(NC(C)=O)cc3)c2c1
- inhibition [1]: 52%
- IC50 [2]: 10 µM

SMILES: COc1cc(/C=C2\C(=O)NN(c3cccc(Cl)c3)C2=O)ccc1O
- inhibition [1]: 74%
- IC50 [2]: > 50 µM

SMILES: CCOC(=O)c1ccc2ncc(C(=O)OCC)c(Nc3ccc(C)c(Br)c3)c2c1
- inhibition [1]: 13%
- IC50 [2]: 50 µM

SMILES: COc1ccc(O)c(-c2cc(-c3ccccc3Cl)n[nH]2)c1
- IC50 [2]: 20 µM

SMILES: COc1ccc(O)c(-c2cc(-c3ccccc3Cl)[nH]n2)c1
- inhibition [1]: 43%

SMILES: COc1cccc(NC(=O)Nc2nnc(-c3ccncc3)s2)c1
- Activity [3]: 11%
- Activity [4]: 47%
- Activity [5]: 96%
- inhibition [1]: 41%
- Activity [6]: 77%
- Activity [7]: 110%
- IC50 [2]: 5 µM
- Activity [8]: 98%
- Activity [9]: 83%
- Activity [10]: 96%
- Activity [11]: 113%
- Activity [12]: 104%
- Activity [13]: 104%
- Activity [14]: 138%
- Activity [15]: 98%
- Activity [16]: 101%
- Activity [17]: 69%
